In patent US5310659A, “GL-7ACA acylase” (priority 1990, dated 1994):
Read-outs that look alike come from different tables or passages of the source.

Legend:
[1] = target: T1, GL-7ACA acylase J1 of Bacillus laterosporus J1 (SEQ ID NO: 3), purified from recombinant E. coli (Brevibacillus laterosporus, UniProt Q45289); assay: Inhibition by reaction products (competitive), Ki determination by HPLC assay; format: biochemical; conditions: substrate GL-7ACA, 37° C.
Protocol: Inhibitory activity of reaction products, namely 7-ACA and glutaric acid on the enzyme activity of GL-7ACA acylase J1 was examined. The enzyme activity was assayed in the presence of various concentrations of 7-ACA or glutaric acid. For determination of Ki of 7-ACA, reaction mixture (200 μl) containing 20 μmole of glycine buffer (pH 9), 0.39-2.0 μmole of GL-7ACA, 0.3-0.48 μmole of 7-ACA and 11 μg of enzyme was used and the reaction was performed at 37° C. for 6 min. For determination of Ki of glutaric acid, reaction mixture (200 μl) containing (a) 20 μmole of glycine buffer (pH 9), 0.26-3.0 μmol of GL-7ACA, 2-10 μmol of glutaric acid and 11 μg of the enzyme (b) 20 μmol of Tris-HCl buffer (pH 8), 0.05-1.0 μmol of GL-7ACA, […] of glutaric acid and 5 μg of the enzyme was used. The reaction was performed at 37° C. for 3 min. […] Ki values were calculated from the apparent Michaelis constants (Kmapp), Km and Vmax. Ki values of 7-ACA was 2.0 mM.

[2] = target: T1, GL-7ACA acylase J1 of Bacillus laterosporus J1 (SEQ ID NO: 3), purified from recombinant E. coli; assay: biochemical; conditions: for Relative activity (%): enzyme treated 37° C. 3 hours in 0.1 M Tris-HCl (pH 8), residual activity vs blank-treated enzyme, substrate GL-7ACA
Protocol: Effect of p-chloromercuribenzoate (pCMB, Sigma Chemical Co., Ltd.), phenylmethylsulfonyl fluoride (PMSF, Sigma) and ethylenediaminetetraacetic acid (EDTA, Nacalai Tesque Inc., Japan) on the activity of GL-7ACA acylase J1 was examined as follows. Eleven μg of GL-7ACA acylase J1 was treated at 37° C. for 3 hours with 1.0 or 5.0 mM pCMB, 1.0 or 5.0 mM PMSF, or 1.0 or 5.0 mM EDTA in 200 μl of 0.1 M Tris-HCl buffer (pH 8). Residual activity of the treated enzyme was assayed by adding 22 μl of GL-7ACA (20 mg/ml) as a substrate to the mixture. The reaction was performed at 37° C for 10 min. Residual activity was expressed as a percentage compared to the activity of the enzyme treated with blank solution.

[3] = system: CC(=O)OCC1=C(C(=O)O)N2C(=O)C(NC(=O)CCCC(=O)O)[C@H]2SC1; assay: Michaelis-Menten kinetics of GL-7ACA hydrolysis, HPLC assay, Lineweaver-Burk plot; format: biochemical, Bacillus laterosporus J1; conditions: 37° C., 2 min
Protocol: Transformant colonies were picked up and grown overnight at 30° C. in 1 ml of 2% Bouillon (Eiken Chemical Co., Ltd., Japan) supplemented with 1 mM […] (IPTG; Sigma Chemical Co., Ltd., U.S.A.). Cells were harvested by centrifugation and resulting cell pellets were used for assay. Reaction mixture (200 μl ) containing 100 mM phosphate buffer (pH 8), 2 mg of GL-7ACA and cell pellets were thoroughly mixed and incubated for 10 min at 37° C. The reaction was terminated by the addition of 200 μl of 4% acetic acid. Samples were applied to a Inertsil ODS-2 column (4.6 mm × 150 mm) (Gasukuro Kogyo Co., Ltd., Japan) and elution was performed with 0.567 g/l of Na2 HPO4, 0.36 g/l of KH2 PO4 and 2-4% methanol. 7ACA was detected with absorption at 254 nm.
The activity of the GL-7ACA acylase J1 was determined by HPLC assay. […] Specific enzyme activity was expressed as unit per mg of protein. Protein concentrations were determined by Bio-Rad protein assay kit (Bio-Rad Co., Ltd., U.S.A.) with bovine serum albumin as a standard. Maximum specific enzyme activity (Vmax) and Michaelis constant (Km) were calculated from slope and intersection which were obtained by Lineweaver-Burk plot (Cf. M. Dixon and E. C. Webb, Enzymes, Longmans, London, 1958). […]

[4] = pH 8, read-out: Relative activity (%)

T1 sequence (Q45289 entry or part of it): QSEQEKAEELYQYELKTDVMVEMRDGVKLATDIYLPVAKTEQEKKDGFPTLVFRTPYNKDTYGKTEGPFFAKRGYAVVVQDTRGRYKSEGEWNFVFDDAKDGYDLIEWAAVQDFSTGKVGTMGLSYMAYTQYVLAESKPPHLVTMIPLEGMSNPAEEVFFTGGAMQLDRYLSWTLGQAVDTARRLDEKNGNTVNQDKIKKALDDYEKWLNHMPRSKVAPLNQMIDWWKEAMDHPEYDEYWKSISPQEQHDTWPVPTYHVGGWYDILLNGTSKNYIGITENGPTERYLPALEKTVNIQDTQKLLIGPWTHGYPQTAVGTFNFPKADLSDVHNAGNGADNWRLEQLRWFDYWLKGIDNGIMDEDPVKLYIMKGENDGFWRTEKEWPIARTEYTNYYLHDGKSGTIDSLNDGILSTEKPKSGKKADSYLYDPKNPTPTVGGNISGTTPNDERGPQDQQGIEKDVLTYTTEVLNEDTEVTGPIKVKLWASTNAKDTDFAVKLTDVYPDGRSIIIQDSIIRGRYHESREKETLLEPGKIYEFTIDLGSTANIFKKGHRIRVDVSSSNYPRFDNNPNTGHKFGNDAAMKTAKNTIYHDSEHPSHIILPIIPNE

CC(=O)OCC1=C(C(=O)O)N2C(=O)C(N)C2SC1 (centres unmarked) [7-ACA, 7-aminocephalosporanic acid]
Ki ([1]; glycine buffer (pH 9), 6 min, read-out: Ki of 7-ACA): 2000 µM

O=C(O)CN(CCN(CC(=O)O)CC(=O)O)CC(=O)O [EDTA, ethylenediaminetetraacetic acid]
activity at 1000 µM [2, 4]: 100%
activity at 5000 µM [2, 4]: 102%

O=S(=O)(F)Cc1ccccc1 [PMSF, phenylmethylsulfonyl fluoride]
Relative activity (%) ([2]; inhibitor 1 mM): 90%
Relative activity (%) ([2]; inhibitor 5 mM): 78%

O=C(O)CCCC(=O)O [glutaric acid]
Ki ([1]; 0.1M Tris-HCl buffer (pH 8), 3 min, read-out: Ki of glutaric acid): 990 µM
Ki ([1]; 0.1M glycine buffer (pH 9), 3 min, read-out: Ki of glutaric acid): 53000 µM

O=C(O)c1cc[c]([Hg][Cl])cc1 [pCMB, p-chloromercuribenzoate]
Relative activity (%) ([2]; inhibitor 1 mM): 106%
Relative activity (%) ([2]; inhibitor 5 mM): 104%

GL-7ACA acylase J1 of Bacillus laterosporus J1 (SEQ ID NO: 3), purified from recombinant E. coli (Brevibacillus laterosporus)
Km ([3]; other: 100 mM Tris-HCl buffer (pH 8), 0.16-5 mM GL-7ACA, pH 8.0): 140 µM
Km ([3]; other: 100 mM glycine buffer (pH 9), 1.4-20 mM GL-7ACA, pH 9.0): 3200 µM
